From ChEMBL document CHEMBL1799910, “Optimization of 1,2,3,4-tetrahydroacridin-9(10H)-ones as antimalarials utilizing structure-activity and structure-property relationships” (J Med Chem, 2011)
≈ marks a conversion by molar mass, not a printed value.

Key:
J774 = assay: Cytotoxicity against mouse J774 cells after 72 hrs by Cell titer 96 aqueous one solution cell proliferation assay; format: cell-based; details: J774, 72 h
Plasmodium falciparum [1] = assay: Antimalarial activity against chloroquine, mefloquine, pyrimethamine and atovaquone-resistant Plasmodium falciparum TM90-C2B infected in human A positive erythrocytes after 72 hrs by SYBR Green I assay; format: functional, organism-based
Plasmodium falciparum [2] = assay: Antimalarial activity against chloroquine and pyrimethamine-resistant Plasmodium falciparum W2 infected in human A positive erythrocytes after 72 hrs by SYBR Green I assay; format: functional, organism-based; details: W2, 72 h
[3] = Partition coefficient, log D of the compound at pH 7.4 by HPLC analysis; details: octanol/water
[4] = Aqueous solubility of compound at pH 7.4 by HPLC analysis; details: buffer
[5] = Permeability of the compound by PAMPA method at pH 7.4; format: ADME; details: read-out: permeability
[6] = Cytotoxicity index, ratio of EC50 for mouse J774 cells to EC50 for chloroquine, mefloquine, pyrimethamine and atovaquone-resistant Plasmodium falciparum TM90-C2B; format: cell-based; details: read-out: Ratio EC50
Plasmodium falciparum [7] = assay: Resistance index, ratio of EC50 for chloroquine, mefloquine, pyrimethamine and atovaquone-resistant Plasmodium falciparum TM90-C2B to EC50 for chloroquine and pyrimethamine-resistant Plasmodium falciparum W2; format: functional

`COc1ccc2c(=O)c3c([nH]c2c1OC)CCCC3` showed an EC50 (J774) of over 20000 nM, an EC50 (Plasmodium falciparum [1]) of 3460 nM and an EC50 (Plasmodium falciparum [2]) of 6340 nM. It also gave a logD [3] of 1.8, a solubility [4] of 175 µM (≈ 45.4 µg/mL) and a Papp [5] of 19 ×10⁻⁶ cm/s. For the same compound, the selectivity ratio [6] was at least 100 and the “Ratio EC50” value (Plasmodium falciparum [7]) was 0.55.

For `O=c1c2c([nH]c3ccc(-c4ccc(F)cc4F)cc13)CCSC2`, the EC50 (J774) was over 5000 nM, the EC50 (Plasmodium falciparum [1]) was 78.4 nM and the EC50 (Plasmodium falciparum [2]) was 193 nM. It also gave a logD [3] of 3.6, a solubility [4] of 7 µM (≈ 2.31 µg/mL) and a Papp [5] of 10 ×10⁻⁶ cm/s. The selectivity ratio [6] was at least 100 and the “Ratio EC50” value (Plasmodium falciparum [7]) was 0.41.

`CCOc1ccc2[nH]c3c(c(=O)c2c1)CCCC3` showed an EC50 (J774) of over 5000 nM, an EC50 (Plasmodium falciparum [1]) of 226 nM and an EC50 (Plasmodium falciparum [2]) of 265 nM. It also gave a logD [3] of 1.9, a solubility [4] of 5 µM (≈ 1.22 µg/mL) and a Papp [5] of 52 ×10⁻⁶ cm/s. The selectivity ratio [6] was at least 100 and the “Ratio EC50” value (Plasmodium falciparum [7]) was 0.85.

Compound `CC1(C)CCc2[nH]c3cc(Cl)ccc3c(=O)c2C1` has an EC50 (J774) of over 40000 nM, an EC50 (Plasmodium falciparum [1]) of 829 nM and an EC50 (Plasmodium falciparum [2]) of 240 nM. It also gave a logD [3] of 2.8, a solubility [4] of 1 µM (≈ 0.262 µg/mL) and a Papp [5] of 62 ×10⁻⁶ cm/s. The selectivity ratio [6] was at least 100 and the “Ratio EC50” value (Plasmodium falciparum [7]) was 3.45.

Work on `Cc1ccc2[nH]c3c(c(=O)c2c1)CCCC3` yielded an EC50 (J774) of over 40000 nM, an EC50 (Plasmodium falciparum [1]) of 656 nM and an EC50 (Plasmodium falciparum [2]) of 449 nM. It also gave a logD [3] of 1.7, a solubility [4] of 44 µM (≈ 9.38 µg/mL) and a Papp [5] of 19 ×10⁻⁶ cm/s. The selectivity ratio [6] was at least 100 and the “Ratio EC50” value (Plasmodium falciparum [7]) was 1.46.

Work on `COc1cc(OC)c2[nH]c3c(c(=O)c2c1)CCCC3` yielded an EC50 (J774) of over 20000 nM, an EC50 (Plasmodium falciparum [1]) of 7980 nM and an EC50 (Plasmodium falciparum [2]) of over 9640 nM. For the same compound, the logD [3] was 1.9, the solubility [4] was 152 µM (≈ 39.4 µg/mL) and the Papp [5] was 51 ×10⁻⁶ cm/s. The selectivity ratio [6] was at least 100 and the “Ratio EC50” value (Plasmodium falciparum [7]) was under 0.83.

In the case of `COc1ccc2c(=O)c3c([nH]c2c1)CCCCCC3`, the EC50 (J774) is reported as over 40000 nM, the EC50 (Plasmodium falciparum [1]) is reported as 230 nM and the EC50 (Plasmodium falciparum [2]) is reported as 146 nM. The logD [3] was 2.4, the solubility [4] was 98 µM (≈ 25.2 µg/mL) and the Papp [5] was 73 ×10⁻⁶ cm/s. For the same compound, the selectivity ratio [6] was at least 100 and the “Ratio EC50” value (Plasmodium falciparum [7]) was 1.58.

Compound `COc1ccc2[nH]c3c(c(=O)c2c1)CCCC3` has an EC50 (J774) of over 40000 nM, an EC50 (Plasmodium falciparum [1]) of 2530 nM and an EC50 (Plasmodium falciparum [2]) of 2440 nM. The logD [3] was 1.5, the solubility [4] was 78 µM (≈ 17.9 µg/mL) and the Papp [5] was 16 ×10⁻⁶ cm/s. The selectivity ratio [6] was at least 100 and the “Ratio EC50” value (Plasmodium falciparum [7]) was 1.03.

Work on `CC1(C)CCc2c([nH]c3c(Cl)cccc3c2=O)C1` yielded an EC50 (J774) of over 20000 nM, an EC50 (Plasmodium falciparum [1]) of over 9550 nM and an EC50 (Plasmodium falciparum [2]) of 6700 nM. For the same compound, the logD [3] was 3, the solubility [4] was 20 µM (≈ 5.24 µg/mL) and the Papp [5] was 407 ×10⁻⁶ cm/s. For the same compound, the selectivity ratio [6] was at least 100 and the “Ratio EC50” value (Plasmodium falciparum [7]) was over 1.42.

`COc1cc2[nH]c3c(c(=O)c2cc1C)CCCC3` gave an EC50 (J774) of over 20000 nM, an EC50 (Plasmodium falciparum [1]) of 16.2 nM and an EC50 (Plasmodium falciparum [2]) of 34.8 nM. The logD [3] was 2, the solubility [4] was 23 µM (≈ 5.6 µg/mL) and the Papp [5] was 50 ×10⁻⁶ cm/s. For the same compound, the selectivity ratio [6] was at least 100 and the “Ratio EC50” value (Plasmodium falciparum [7]) was 0.46.

Work on `O=c1c2c([nH]c3cc(C(F)(F)F)ccc13)CCCCCC2` yielded an EC50 (J774) of over 10000 nM, an EC50 (Plasmodium falciparum [1]) of 4230 nM and an EC50 (Plasmodium falciparum [2]) of 4740 nM. It also gave a logD [3] of 3.2, a solubility [4] of 13 µM (≈ 3.84 µg/mL) and a Papp [5] of 252 ×10⁻⁶ cm/s. For the same compound, the selectivity ratio [6] was at least 100 and the “Ratio EC50” value (Plasmodium falciparum [7]) was 0.89.

`O=c1c2c([nH]c3c(F)cc(F)cc13)CCCC2` showed an EC50 (J774) of over 40000 nM, an EC50 (Plasmodium falciparum [1]) of 405 nM and an EC50 (Plasmodium falciparum [2]) of 2690 nM. For the same compound, the logD [3] was 1.7, the solubility [4] was 66 µM (≈ 15.5 µg/mL) and the Papp [5] was 29 ×10⁻⁶ cm/s. The selectivity ratio [6] was at least 100 and the “Ratio EC50” value (Plasmodium falciparum [7]) was 0.15.

With `O=c1c2c([nH]c3ccc(I)cc13)CCCC2` the EC50 (J774) was over 20000 nM, the EC50 (Plasmodium falciparum [1]) was 167 nM and the EC50 (Plasmodium falciparum [2]) was 378 nM. For the same compound, the logD [3] was 2.3, the solubility [4] was 4 µM (≈ 1.3 µg/mL) and the Papp [5] was 96 ×10⁻⁶ cm/s. The selectivity ratio [6] was at least 100 and the “Ratio EC50” value (Plasmodium falciparum [7]) was 0.44.

Work on `O=c1c2c([nH]c3cc(Br)ccc13)CCCC2` yielded an EC50 (J774) of over 10000 nM, an EC50 (Plasmodium falciparum [1]) of 115 nM and an EC50 (Plasmodium falciparum [2]) of 77.7 nM. It also gave a logD [3] of 2.8, a solubility [4] of 14 µM (≈ 3.89 µg/mL) and a Papp [5] of 70 ×10⁻⁶ cm/s. The selectivity ratio [6] was at least 100 and the “Ratio EC50” value (Plasmodium falciparum [7]) was 1.48.

In the case of `O=c1c2c([nH]c3ccc(-c4ccc(COc5ccc(OC(F)(F)F)cc5)cc4)cc13)CCSC2`, the EC50 (J774) is reported as over 10000 nM, the EC50 (Plasmodium falciparum [1]) is reported as 2840 nM and the EC50 (Plasmodium falciparum [2]) is reported as 129 nM. For the same compound, the logD [3] was 3.5, the solubility [4] was 12 µM (≈ 5.8 µg/mL) and the Papp [5] was 3 ×10⁻⁶ cm/s. The selectivity ratio [6] was at least 100 and the “Ratio EC50” value (Plasmodium falciparum [7]) was 22.

`O=c1c2c([nH]c3cc(C(F)(F)F)ccc13)CCCC2` gave an EC50 (J774) of over 20000 nM, an EC50 (Plasmodium falciparum [1]) of 19 nM and an EC50 (Plasmodium falciparum [2]) of 120 nM. It also gave a logD [3] of 2.7, a solubility [4] of 158 µM (≈ 42.2 µg/mL) and a Papp [5] of 73 ×10⁻⁶ cm/s. The selectivity ratio [6] was at least 100 and the “Ratio EC50” value (Plasmodium falciparum [7]) was 0.16.

`CC1(C)CCc2c([nH]c3ccc(Cl)cc3c2=O)C1` showed an EC50 (J774) of over 1000 nM, an EC50 (Plasmodium falciparum [1]) of 538 nM and an EC50 (Plasmodium falciparum [2]) of 215 nM. The logD [3] was 2.7, the solubility [4] was 2 µM (≈ 0.524 µg/mL) and the Papp [5] was 96 ×10⁻⁶ cm/s. For the same compound, the selectivity ratio [6] was at least 100 and the “Ratio EC50” value (Plasmodium falciparum [7]) was 2.5.

In the case of `O=c1c2c([nH]c3ccc(-c4cccnc4)cc13)CCSC2`, the EC50 (J774) is reported as over 20000 nM, the EC50 (Plasmodium falciparum [1]) is reported as 8490 nM and the EC50 (Plasmodium falciparum [2]) is reported as 7620 nM. For the same compound, the logD [3] was 0.8, the solubility [4] was 37 µM (≈ 10.9 µg/mL) and the Papp [5] was 3 ×10⁻⁶ cm/s. The selectivity ratio [6] was at least 100 and the “Ratio EC50” value (Plasmodium falciparum [7]) was 1.11.
